According to article PMC9486808 (ACS Chemical Biology, 2022):
Entries after “also recorded” stand apart in the source; their conditions may differ. Positions of bridges follow the written chain, without caps; N, C: chain ends. Non-standard residues stand in square brackets, D forms with d. Residues, ends and D or L forms follow the SMILES beside them.

Columns and labels:
Format in all cases: cell-based, Influenza A virus A/California/04/2009 (H1N1)
[1] = target: full length, membrane-bound H1 HA (Influenza A virus, UniProt C3W5S1)
[2] = target: full-length H1 HA I375F (Influenza A virus, UniProt C3W5S1, I389F)
[3] = target: full-length H1 HA I463V (Influenza A virus, UniProt C3W5S1, I477V)

SMILES: CC(C)C[C@@H]1NC(=O)[C@H](C(C)C)NC(=O)[C@@H](Cc2ccc(O)cc2)NC(=O)CSC[C@@H](C(=O)NCC(N)=O)NC(=O)[C@H](C(C)C)NC(=O)[C@H](Cc2c[nH]c3ccccc23)NC(=O)[C@H](Cc2c[nH]cn2)NC(=O)[C@H]([C@@H](C)O)NC(=O)[C@H](C)NC(=O)[C@H](CC(C)C)NC(=O)[C@H]([C@@H](C)O)NC(=O)CNC(=O)[C@H](Cc2c[nH]cn2)NC(=O)[C@H](CC(=O)O)NC(=O)[C@H](Cc2c[nH]c3ccccc23)NC(=O)[C@H](CCCNC(=N)N)NC(=O)[C@H](Cc2ccccc2)NC1=O [S5] ({CH2CO}-[dY]VLFRWDHGTLATHWVCG-NH2; thioether N-17)
- Competition with mAb Fi6 staining [1]: strongly decreased the staining; also recorded: competed with the binding of mAb Fi6
- Binding of biotinylated S5 to cell-surface H1 [2]: hinders binding; also recorded: affected by the I375F substitution
- Binding of biotinylated S5 to cell-surface H1 [3]: not by the I463V substitution
